ChEMBL document CHEMBL1201862, “PubChem BioAssay data set” (2004)
Activity calls are given as the source filed them.

How the values were obtained:
[1] = target: Glyceraldehyde-3-phosphate dehydrogenase (Homo sapiens, UniProt P04406)
[2] = A Cell Based Secondary Assay To Explore Cytotoxicity of Compounds that Sensitize Mycobacterium Tuberculosis to Beta-Lactam Antibiotics.; type: functional
[3] = Luminescence Cell-Based Dose Response HTS to Identify Activators of Luciferase Translation or Activity in H4 […] Cells. [Related pubchem assays: 1829 (Project Summary), 1814 (Primary HTS)]; type: functional
H4 = experiment: Luminescence Cell-Based Dose Response HTS to Identify Activators of 5'UTR Stem-Loop Driven Prion Protein mRNA Translation in H4 Neuroglioblastoma Cells. [Related pubchem assays: 1829 (Project Summary), 1814 (Primary HTS)]; type: functional; details: Homo sapiens
[4] = Luminescence Cell-Based Dose Confirmation HTS to Identify Activators of 5'UTR Stem-Loop Driven Alpha-Synuclein mRNA Translation in H4 Neuroglioblastoma Cells. [Related pubchem assays: 1829 (Project Summary), 1814 (Primary HTS)]; type: functional
cells [5] = experiment: cells
[6] = target: Voltage-dependent T-type calcium channel subunit alpha-1H (Homo sapiens, UniProt O95180); type: functional;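 note: channel activity triggered by adding a high calcium stimulation buffer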
Voltage-dependent T-type calcium channel subunit alpha-1H, sequence (O95180 whole entry): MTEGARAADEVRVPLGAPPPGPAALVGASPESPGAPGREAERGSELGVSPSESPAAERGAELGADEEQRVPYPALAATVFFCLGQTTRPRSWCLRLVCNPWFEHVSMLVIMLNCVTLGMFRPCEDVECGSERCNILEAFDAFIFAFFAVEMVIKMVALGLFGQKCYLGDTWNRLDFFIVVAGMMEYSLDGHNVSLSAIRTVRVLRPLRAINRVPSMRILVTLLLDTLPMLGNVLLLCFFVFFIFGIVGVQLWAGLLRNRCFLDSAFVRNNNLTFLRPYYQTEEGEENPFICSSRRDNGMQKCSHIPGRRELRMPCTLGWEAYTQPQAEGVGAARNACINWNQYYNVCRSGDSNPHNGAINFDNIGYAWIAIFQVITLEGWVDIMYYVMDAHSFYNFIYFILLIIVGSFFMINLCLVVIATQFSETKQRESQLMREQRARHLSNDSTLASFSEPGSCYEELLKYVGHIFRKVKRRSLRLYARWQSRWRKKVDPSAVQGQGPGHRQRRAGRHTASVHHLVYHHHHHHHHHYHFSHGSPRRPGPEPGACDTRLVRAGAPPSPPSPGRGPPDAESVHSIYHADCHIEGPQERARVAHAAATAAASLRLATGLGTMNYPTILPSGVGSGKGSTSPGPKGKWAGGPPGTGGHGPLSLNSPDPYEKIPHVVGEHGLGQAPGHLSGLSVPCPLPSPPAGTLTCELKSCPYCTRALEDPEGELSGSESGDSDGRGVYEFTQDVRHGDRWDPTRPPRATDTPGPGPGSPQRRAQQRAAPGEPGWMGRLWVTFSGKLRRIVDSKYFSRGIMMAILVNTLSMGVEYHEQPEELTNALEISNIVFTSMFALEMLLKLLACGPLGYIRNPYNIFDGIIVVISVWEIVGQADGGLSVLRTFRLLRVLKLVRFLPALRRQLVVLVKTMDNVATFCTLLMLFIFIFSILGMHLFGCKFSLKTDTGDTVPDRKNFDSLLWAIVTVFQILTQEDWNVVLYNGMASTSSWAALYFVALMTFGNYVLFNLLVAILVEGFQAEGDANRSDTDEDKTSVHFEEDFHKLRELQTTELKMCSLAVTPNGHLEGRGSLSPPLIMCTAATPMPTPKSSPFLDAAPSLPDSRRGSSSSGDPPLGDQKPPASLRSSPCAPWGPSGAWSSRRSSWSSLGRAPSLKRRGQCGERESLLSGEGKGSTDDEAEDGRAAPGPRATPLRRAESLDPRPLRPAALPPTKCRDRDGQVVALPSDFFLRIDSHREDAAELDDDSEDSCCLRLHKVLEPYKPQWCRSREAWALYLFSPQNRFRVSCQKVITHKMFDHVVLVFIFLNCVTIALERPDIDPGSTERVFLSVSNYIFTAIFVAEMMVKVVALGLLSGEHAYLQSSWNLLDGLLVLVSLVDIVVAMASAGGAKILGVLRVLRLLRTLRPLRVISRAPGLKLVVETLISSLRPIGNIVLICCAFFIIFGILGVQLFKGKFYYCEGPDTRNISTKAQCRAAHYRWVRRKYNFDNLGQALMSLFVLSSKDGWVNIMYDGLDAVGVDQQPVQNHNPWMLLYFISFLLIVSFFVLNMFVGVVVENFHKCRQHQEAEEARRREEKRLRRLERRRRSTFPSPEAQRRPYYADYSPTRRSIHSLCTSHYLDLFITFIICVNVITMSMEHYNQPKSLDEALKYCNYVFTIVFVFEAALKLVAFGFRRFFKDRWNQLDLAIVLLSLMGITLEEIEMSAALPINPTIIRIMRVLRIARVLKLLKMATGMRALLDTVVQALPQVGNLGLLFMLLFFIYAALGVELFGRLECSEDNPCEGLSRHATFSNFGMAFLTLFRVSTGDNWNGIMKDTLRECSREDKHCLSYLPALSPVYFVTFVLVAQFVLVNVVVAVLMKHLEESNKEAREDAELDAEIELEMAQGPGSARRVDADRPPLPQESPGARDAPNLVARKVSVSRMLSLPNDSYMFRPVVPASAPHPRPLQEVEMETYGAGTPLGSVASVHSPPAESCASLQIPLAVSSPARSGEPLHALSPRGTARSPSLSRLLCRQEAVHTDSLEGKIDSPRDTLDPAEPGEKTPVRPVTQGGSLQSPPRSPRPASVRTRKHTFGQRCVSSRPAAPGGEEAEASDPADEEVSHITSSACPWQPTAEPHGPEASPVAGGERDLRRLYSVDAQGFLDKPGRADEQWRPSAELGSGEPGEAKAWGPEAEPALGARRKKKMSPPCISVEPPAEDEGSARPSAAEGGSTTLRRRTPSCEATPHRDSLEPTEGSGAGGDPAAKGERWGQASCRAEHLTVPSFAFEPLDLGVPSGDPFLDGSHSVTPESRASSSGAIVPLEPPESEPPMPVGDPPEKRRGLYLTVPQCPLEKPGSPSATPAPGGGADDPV

[7] = target: T1, Short transient receptor potential channel 4 (Mus musculus, UniProt Q9QUQ5); experiment: mouse TRPC4 channel activators, dose response, cell-based, HEK293 TRPC4/mu-opioid, Fluo-4 calcium (AID 434937); type: functional
T1 sequence (Q9QUQ5 whole entry): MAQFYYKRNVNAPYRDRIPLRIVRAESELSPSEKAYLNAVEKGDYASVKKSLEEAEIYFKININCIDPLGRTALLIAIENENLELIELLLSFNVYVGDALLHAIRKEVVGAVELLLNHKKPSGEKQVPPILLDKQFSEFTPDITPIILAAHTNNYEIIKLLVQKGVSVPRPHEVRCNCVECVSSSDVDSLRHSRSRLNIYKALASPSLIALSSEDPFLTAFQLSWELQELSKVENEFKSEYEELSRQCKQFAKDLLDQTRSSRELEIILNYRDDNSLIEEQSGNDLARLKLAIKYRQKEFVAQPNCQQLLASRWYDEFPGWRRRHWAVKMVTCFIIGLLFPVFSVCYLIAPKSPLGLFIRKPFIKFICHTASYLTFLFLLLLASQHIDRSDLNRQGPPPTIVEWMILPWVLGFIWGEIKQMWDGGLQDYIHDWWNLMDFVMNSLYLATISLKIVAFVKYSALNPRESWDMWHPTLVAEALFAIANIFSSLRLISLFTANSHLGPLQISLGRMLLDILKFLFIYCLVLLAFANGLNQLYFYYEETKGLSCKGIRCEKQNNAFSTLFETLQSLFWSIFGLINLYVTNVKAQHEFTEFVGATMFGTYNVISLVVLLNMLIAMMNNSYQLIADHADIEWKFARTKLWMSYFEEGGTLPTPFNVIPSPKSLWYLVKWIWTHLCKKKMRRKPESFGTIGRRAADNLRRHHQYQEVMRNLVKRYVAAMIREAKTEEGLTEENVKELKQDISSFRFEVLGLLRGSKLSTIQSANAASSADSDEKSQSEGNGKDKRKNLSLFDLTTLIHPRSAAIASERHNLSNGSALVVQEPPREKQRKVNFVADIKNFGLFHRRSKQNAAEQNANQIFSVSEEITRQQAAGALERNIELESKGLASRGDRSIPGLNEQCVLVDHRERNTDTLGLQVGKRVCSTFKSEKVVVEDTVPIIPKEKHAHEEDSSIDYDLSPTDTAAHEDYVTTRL

[8] = Luminescence Cell-Based Dose Retest to Confirm Inhibitors of Cancer Stem Cells. [Related pubchem assays (depositor defined):AID2717, AID2721]; type: functional; details: Homo sapiens
INS1 = experiment: beta cell apoptosis inhibitors, cytokine rescue, dose response, luminescence, retest (AID 449756); type: functional, cell-based; details: Rattus norvegicus, INS1;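 note: cell death triggered by IL-1 beta plus TNF-alpha plus IFN-gamma mixture; protective hits raise ATP signal compared with cytokine alone wells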
[9] = tested on: Streptococcus sp. 'group A'; experiment: growth inhibition of control SK(-) GAS strain, dose response, counter-screen for streptokinase expression inhibitor project, luminescence, kanamycin, BacTiterGlo, confirmation (AID 1900); type: functional, organism-based
Streptococcus = experiment: Group A Streptococcus viability loss, dose response, counter-screen for streptokinase expression inhibitor project, luminescence, BacTiterGlo (AID 1915); type: functional, organism-based;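 note: potency for reduction of bacterial viability or growth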
[10] = NIH-3T3 fibroblast cytotoxicity, dose response, cytotoxicity control, cell-based, fluorescence, Alamar Blue, secondary assay (AID 2327); type: functional;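 note: NIH-3T3 mouse fibroblasts cultured with fluconazole at 8 µg/mL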
[11] = C. albicans growth with fluconazole, confirmation, fluorescence, retest (AID 2467); type: functional, cell-based
[12] = HEp-2 cell cytotoxicity, dose response, cytotoxicity control for RSV inhibitor project, HTS (AID 2410); type: functional; details: human respiratory syncytial virus
Beta-galactosidase = Beta-galactosidase (Escherichia coli, UniProt Q8VNN2); experiment: beta-galactosidase enzyme inhibitors and activators, dose response, artefact control for CCR6 antagonist project, biochemical, E. coli enzyme, set 3 (AID 504712); type: functional
Beta-galactosidase, sequence (Q8VNN2 whole entry): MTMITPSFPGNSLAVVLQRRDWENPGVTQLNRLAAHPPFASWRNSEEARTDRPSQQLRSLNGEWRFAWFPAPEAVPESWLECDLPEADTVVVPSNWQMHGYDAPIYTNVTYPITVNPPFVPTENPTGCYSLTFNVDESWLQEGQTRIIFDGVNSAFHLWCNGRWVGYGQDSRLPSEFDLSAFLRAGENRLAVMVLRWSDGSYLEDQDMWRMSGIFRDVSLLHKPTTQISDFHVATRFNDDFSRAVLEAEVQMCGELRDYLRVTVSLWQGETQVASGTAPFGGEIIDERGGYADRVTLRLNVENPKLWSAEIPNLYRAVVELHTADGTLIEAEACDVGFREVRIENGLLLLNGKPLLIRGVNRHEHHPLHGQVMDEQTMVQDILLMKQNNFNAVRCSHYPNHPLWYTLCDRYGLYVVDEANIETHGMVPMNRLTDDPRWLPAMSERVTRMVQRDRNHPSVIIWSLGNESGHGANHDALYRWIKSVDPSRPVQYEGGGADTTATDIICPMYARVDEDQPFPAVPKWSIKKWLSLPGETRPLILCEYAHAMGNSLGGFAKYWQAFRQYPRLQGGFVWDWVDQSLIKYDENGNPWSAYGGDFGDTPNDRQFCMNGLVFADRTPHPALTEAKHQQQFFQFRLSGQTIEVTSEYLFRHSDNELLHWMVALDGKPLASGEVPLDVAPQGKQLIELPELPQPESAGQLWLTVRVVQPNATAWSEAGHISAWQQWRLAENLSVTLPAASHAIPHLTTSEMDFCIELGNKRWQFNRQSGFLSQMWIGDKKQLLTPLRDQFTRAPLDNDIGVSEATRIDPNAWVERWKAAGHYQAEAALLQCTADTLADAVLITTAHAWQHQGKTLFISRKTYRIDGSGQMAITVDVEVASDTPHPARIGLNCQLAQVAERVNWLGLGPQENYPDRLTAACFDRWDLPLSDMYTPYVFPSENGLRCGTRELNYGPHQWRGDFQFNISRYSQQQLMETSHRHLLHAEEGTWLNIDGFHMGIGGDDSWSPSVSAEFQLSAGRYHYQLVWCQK

cells [13] = type: functional
Tumor necrosis factor = Tumor necrosis factor (Homo sapiens, UniProt P01375); experiment: TNFa-triggered NF-kB activation inhibitors, SAR follow-up, cell-based, revised (AID 2337); type: functional
Tumor necrosis factor, sequence (P01375 whole entry, the tested form may be a part): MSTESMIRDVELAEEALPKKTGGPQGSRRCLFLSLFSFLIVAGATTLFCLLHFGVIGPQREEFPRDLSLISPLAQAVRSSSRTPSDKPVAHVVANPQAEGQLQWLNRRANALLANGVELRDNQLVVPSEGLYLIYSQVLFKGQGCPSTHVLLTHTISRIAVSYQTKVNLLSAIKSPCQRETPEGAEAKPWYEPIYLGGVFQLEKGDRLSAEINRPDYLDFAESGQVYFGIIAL

[14] = target: T2, Nucleotide-binding oligomerization domain-containing protein 1 (Homo sapiens, UniProt Q9Y239); experiment: NOD1 signaling inhibitors, SAR follow-up, revised (AID 2333); type: functional
T2 sequence (Q9Y239 whole entry): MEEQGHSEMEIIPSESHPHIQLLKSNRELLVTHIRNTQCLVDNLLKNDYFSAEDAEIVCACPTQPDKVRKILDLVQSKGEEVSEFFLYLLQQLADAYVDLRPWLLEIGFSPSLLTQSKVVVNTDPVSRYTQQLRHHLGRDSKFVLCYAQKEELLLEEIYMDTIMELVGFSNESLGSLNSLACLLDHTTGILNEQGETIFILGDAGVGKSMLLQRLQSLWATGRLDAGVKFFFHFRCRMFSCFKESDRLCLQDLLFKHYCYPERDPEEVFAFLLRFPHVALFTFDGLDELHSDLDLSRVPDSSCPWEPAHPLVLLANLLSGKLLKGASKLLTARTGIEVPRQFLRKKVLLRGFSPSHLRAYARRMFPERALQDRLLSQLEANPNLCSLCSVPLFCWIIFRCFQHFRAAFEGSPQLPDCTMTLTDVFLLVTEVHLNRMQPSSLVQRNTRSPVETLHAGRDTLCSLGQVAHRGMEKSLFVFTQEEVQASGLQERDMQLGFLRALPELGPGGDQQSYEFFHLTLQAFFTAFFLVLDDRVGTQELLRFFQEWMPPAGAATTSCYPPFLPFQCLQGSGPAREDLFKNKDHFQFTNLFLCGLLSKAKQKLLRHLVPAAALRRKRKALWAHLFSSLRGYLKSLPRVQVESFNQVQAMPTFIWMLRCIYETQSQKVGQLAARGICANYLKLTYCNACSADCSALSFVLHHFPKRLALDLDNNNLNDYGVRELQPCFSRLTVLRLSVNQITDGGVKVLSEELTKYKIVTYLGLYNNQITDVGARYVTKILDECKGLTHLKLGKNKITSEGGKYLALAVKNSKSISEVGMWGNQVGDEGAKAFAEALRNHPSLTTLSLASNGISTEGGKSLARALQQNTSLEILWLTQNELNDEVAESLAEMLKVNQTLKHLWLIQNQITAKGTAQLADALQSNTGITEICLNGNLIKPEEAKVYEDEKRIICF

HEK293 [15] = experiment: cells; type: functional, cell-based; details: Homo sapiens
HEK293 [16] = experiment: NOD2 signaling inhibitors in MDP-stimulated cells, cell-based, uHTS, luminescence (AID 2001); type: functional; details: Homo sapiens
HEK293 [17] = experiment: cells; details: Homo sapiens
HEK293 [18] = experiment: cells; type: functional, cell-based; details: Homo sapiens; remark: listed apart in the source
HEK293 [19] = experiment: NOD1 signaling inhibitors, primary screen, cell-based, luminescence, uHTS (AID 1578); type: functional; details: Homo sapiens
[20] = T. cruzi growth inhibition in host cells, dose response, cell-based, plate reader, dry powder, set 2 (AID 652275); type: functional
[21] = target: T3, Microphthalmia-associated transcription factor (Homo sapiens, UniProt O75030); experiment: TRPM1 promoter luciferase signal decrease, dose response, MITF inhibitor project, cell-based, SK-MEL-5, cherry-picked, set 3 (AID 493073); type: functional
T3 sequence (O75030 whole entry): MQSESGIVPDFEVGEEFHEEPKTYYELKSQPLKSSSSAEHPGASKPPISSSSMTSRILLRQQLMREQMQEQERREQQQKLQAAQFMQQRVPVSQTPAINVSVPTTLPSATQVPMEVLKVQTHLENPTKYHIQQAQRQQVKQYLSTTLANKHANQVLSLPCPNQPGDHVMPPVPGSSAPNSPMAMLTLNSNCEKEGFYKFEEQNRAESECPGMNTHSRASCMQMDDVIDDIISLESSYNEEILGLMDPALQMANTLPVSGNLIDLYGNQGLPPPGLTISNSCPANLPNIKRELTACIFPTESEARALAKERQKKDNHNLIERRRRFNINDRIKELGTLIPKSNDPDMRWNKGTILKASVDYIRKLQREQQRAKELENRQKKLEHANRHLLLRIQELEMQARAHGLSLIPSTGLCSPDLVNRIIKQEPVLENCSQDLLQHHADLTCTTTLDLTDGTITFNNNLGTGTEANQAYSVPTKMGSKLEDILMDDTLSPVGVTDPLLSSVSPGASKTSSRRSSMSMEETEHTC

Genome polyprotein = Genome polyprotein (dengue virus type 2, UniProt P29990); experiment: Dengue-2 NS5 methyltransferase inhibitors, primary screen, biochemical, confirmation dose response (AID 588689); type: functional
Genome polyprotein, sequence (P29990 2492-3391 limits assumed): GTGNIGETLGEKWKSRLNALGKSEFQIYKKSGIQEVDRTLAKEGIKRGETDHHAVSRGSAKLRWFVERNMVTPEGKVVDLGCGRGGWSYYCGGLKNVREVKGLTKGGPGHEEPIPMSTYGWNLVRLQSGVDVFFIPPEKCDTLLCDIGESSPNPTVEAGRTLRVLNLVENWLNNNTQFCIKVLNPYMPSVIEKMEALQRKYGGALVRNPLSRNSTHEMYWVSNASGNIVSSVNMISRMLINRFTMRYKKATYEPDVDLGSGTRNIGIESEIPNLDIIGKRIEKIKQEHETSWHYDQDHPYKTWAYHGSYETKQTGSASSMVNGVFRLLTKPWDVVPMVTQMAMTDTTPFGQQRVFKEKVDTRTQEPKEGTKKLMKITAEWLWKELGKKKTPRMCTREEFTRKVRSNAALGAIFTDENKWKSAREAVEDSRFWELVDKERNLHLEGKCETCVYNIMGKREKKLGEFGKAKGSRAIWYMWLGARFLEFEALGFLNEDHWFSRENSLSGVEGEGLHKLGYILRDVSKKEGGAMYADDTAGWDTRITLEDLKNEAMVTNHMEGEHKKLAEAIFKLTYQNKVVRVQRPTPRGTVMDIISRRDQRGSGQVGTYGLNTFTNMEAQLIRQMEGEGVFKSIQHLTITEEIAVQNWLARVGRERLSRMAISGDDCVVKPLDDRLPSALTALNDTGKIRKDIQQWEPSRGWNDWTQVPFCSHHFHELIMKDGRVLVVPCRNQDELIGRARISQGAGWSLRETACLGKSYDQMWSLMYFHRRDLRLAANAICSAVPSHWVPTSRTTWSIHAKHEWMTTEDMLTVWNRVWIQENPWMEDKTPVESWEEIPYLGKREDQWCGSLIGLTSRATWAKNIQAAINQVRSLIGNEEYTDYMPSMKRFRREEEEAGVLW

Glyceraldehyde-3-phosphate dehydrogenase, sequence (P04406 whole entry): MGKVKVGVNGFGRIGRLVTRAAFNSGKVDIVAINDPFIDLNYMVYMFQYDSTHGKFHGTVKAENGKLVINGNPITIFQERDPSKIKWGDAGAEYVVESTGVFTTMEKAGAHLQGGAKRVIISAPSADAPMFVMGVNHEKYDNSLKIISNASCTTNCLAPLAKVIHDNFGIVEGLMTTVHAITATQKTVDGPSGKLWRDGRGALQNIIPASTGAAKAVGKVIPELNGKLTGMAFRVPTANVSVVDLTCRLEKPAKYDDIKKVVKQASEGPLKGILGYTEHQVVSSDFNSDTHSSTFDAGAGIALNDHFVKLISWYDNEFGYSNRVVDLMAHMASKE

COc1cccc(N2C(=O)C(Cl)=C(N3CCN[C@@H](C)C3)C2=O)c1
IC50 [1]: > 50 µM (inconclusive)

COc1ccc(C(=O)/C=C/c2cccs2)c(OC(=O)c2cccc([N+](=O)[O-])c2)c1
CC50 [2]: 38.5 µM (active)
EC50 [3]: 4.7 µM (active)
EC50 (H4): 10.6 µM (active)
EC50 [4]: > 120 µM (not active)

COc1ccc2nc(/C=N/NC(=O)[C@H](C)NC(=O)OC(C)(C)C)ccc2c1
IC50 (cells [5]): 31.9 µM (active)

O=S(=O)(c1ccc(Cl)cc1)N1CCCC1c1nc2ccccc2s1 (stereo not drawn)
EC50 [6]: 6.61 µM (active)

CCOC(=O)C1(Cc2ccccc2)CCN(Cc2c[nH]nc2-c2ccccc2)CC1
EC50 [7]: 6.68 µM (active)

CC(=O)NC(c1cc(Cl)c2cccnc2c1O)C1CC1 (stereo not drawn)
AC50 [8]: 3.26 µM (active)
CC50 [2]: 5.47 µM (active)
AC50 (INS1): 1.91 µM (active)

O=C(COc1ccccc1)NNC(=S)NC(=O)c1ccc(Cl)cc1Cl
EC50 [9]: 0.623 µM (active)
EC50 (Streptococcus): 2.96 µM (active)
EC50 [10]: 110 µM (active)
EC50 [11]: > 38 µM (not active)
EC50 [7]: 4.73 µM (active)

Clc1ccc(CN(CC2CCCO2)C(c2cccs2)c2nnnn2C2CCCC2)cc1 (stereo not drawn)
EC50 [6]: 6.56 µM (active)

CCOc1ccc(-c2cc(C(=O)O)c3ccccc3n2)c(OCC)c1
IC50 (cells [5]): 19.7 µM (active)
CC50 [12]: 42 µM (active)

CCOC(=O)Cc1csc(NC(=O)COc2ccc3ccccc3c2)n1
EC50 [6]: 2.56 µM (active)

CSc1ncccc1C(=O)Nc1nc2ccc(Oc3ccccc3)cc2s1
CC50 [2]: > 40 µM (active)

Cc1cccc(N2C(=O)C(Cl)=C(N(C)C)C2=O)c1
IC50 [1]: > 50 µM (inconclusive)

Cc1cc([N+](=O)[O-])ccc1NC(=S)NC(=O)Cc1ccccc1
IC50 (Beta-galactosidase): > 66.6 µM (inactive)

CCN(CC)S(=O)(=O)c1cccc(-c2nnc(SCCOc3ccccc3C)o2)c1
EC50 [6]: 9.91 µM (active)

CSc1ccc(N=Nc2c(C)[nH]n(C)c2=O)cc1
IC50 (cells [13]): 15.6 µM (active)

C=CC/N=c1\scc(-c2ccc(F)cc2)n1/N=C/c1ccccn1
CC50 [2]: > 40 µM (active)

COc1ccc(-c2cc(=O)oc3cc(OCC(=O)Nc4ccc(CCO)cc4)ccc23)cc1
IC50 (Tumor necrosis factor): > 20 µM (inactive)
IC50 [14]: 5.18 µM (active)
IC50 (HEK293 [15]): > 20 µM (inactive)
IC50 (HEK293 [16]): > 20 µM (inactive)
IC50 (HEK293 [17]): > 20 µM (inactive)
IC50 (HEK293 [18]): > 20 µM (inactive)
EC50 (HEK293 [19]): 9.26 µM (active)

CC(C)N1C[C@@H](CN(C)Cc2ccc(Cl)cc2)Oc2c(NC(=O)c3ccncc3)cc(F)cc2C1=O
AC50 [20]: 0.00326 µM (active)

CCOC(=O)Cc1c(C)c2c(O)cc(O)cc2oc1=O
IC50 (cells [5]): 15.1 µM (active)
CC50 [12]: 47.7 µM (active)

O=C(N/N=C/c1ccccn1)c1cc([N+](=O)[O-])cc([N+](=O)[O-])c1
AC50 [21]: 6.54 µM (active)
IC50 (cells [13]): 40.2 µM (active)

COC(=O)c1ccc(N2CCN(C)CC2)c(NC(=O)COc2ccccc2)c1
EC50 [7]: 5.96 µM (active)

O=C(CC1C(=O)NCCN1Cc1ccc(-c2ccccc2)cc1)NCCc1ccccn1 (stereo not drawn)
EC50 [7]: 4.73 µM (active)

O=C(NC1CC1)C1=C[C@H](c2csc3ccccc23)C[C@H](OCc2ccc(CO)cc2)O1
EC50 [7]: 10.6 µM (active)

O=c1oc(CCCO)cc2ccc(C#Cc3ccsc3)cc12
CC50 [2]: > 40 µM (active)

CCOc1cc(/C=N/Nc2ccc(S(=O)(=O)Nc3ccccc3C(=O)O)cc2[N+](=O)[O-])cc(Cl)c1O
IC50 (Genome polyprotein): 30.4 µM (active)
